Test results from patent US8067175B2, “Methods and compositions for detecting a drug resistant EGFR mutant” (priority 2005, dated 2011).

Test system: lung adenocarcinoma
Test: Case reports of patients treated with gefitinib or erlotinib

Row | SMILES | chest radiograph response (patient 1, 250 mg daily, 2 wk after start) | chest radiograph outcome (patient 1, nine mo later) | disease outcome on adjuvant treatment (patient 3, after three mo) | CT scan response of bilateral nodules (patient 2, 150 mg daily, 4 mo after treatment) | adverse effect leading to dose decrease (patient 2, after 14 mo of therapy, dose decreased to 100 mg daily) | disease outcome (patient 2, after 25 mo of treatment)
1 | COc1cc2ncnc(Nc3ccc(F)c(Cl)c3)c2cc1OCCCN1CCOCC1 [gefitinib] | dramatic improvement | progression of disease | developed a new left-sided malignant pleural effusion | – | – | –
2 | C#Cc1cccc(Nc2ncnc3cc(OCCOC)c(OCCOC)cc23)c1 [erlotinib] | – | – | – | markedly reduced in number and size | fatigue | the disease progressed within the lung
